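Results reflect a 48-hour exposure of cells in 96-well plates to compound at five concentrations. GI50 is the concentration that inhibits growth by half.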 Activity calls are given as the source filed them. Rule as the data show it: active = GI50 up to about 1.1 µM and inactive = higher.
Tests used:
Assay in all cases: DTP human tumour cell line panel, 48 h
A498 = test system: A498
ACHN = test system: ACHN
EKVX = test system: EKVX
HCT-116 = test system: HCT-116
Hs-578T = test system: Hs-578T
K562 = test system: K562
LOX IMVI = test system: LOX IMVI
M14 = test system: M14
MDA-MB-231 = test system: MDA-MB-231
NCI-H23 = test system: NCI-H23
OVCAR-4 = test system: OVCAR-4
PC-3 = test system: PC-3
SF-295 = test system: SF-295
SF-539 = test system: SF-539
SK-MEL-5 = test system: SK-MEL-5
SK-OV-3 = test system: SK-OV-3
SN12C = test system: SN12C
TK-10 = test system: TK-10
U-251 = test system: U-251
UACC-62 = test system: UACC-62

Row | Structure (SMILES) | GI50 (A498) | GI50 (ACHN) | GI50 (EKVX) | GI50 (HCT-116) | GI50 (Hs-578T) | GI50 (K562) | GI50 (LOX IMVI) | GI50 (M14) | GI50 (MDA-MB-231) | GI50 (NCI-H23) | GI50 (OVCAR-4) | GI50 (PC-3) | GI50 (SF-295) | GI50 (SF-539) | GI50 (SK-MEL-5) | GI50 (SK-OV-3) | GI50 (SN12C) | GI50 (TK-10) | GI50 (U-251) | GI50 (UACC-62)
1 | C=CCN1CCC(OC(=O)C(O)(/C=C\CC)C2CCCC2)CC1 (stereo not given) | > 100 µM (inactive) | > 100 µM (inactive) | > 100 µM (inactive) | > 100 µM (inactive) | > 100 µM (inactive) | > 100 µM (inactive) | > 100 µM (inactive) | > 100 µM (inactive) | > 100 µM (inactive) | 8.71 µM (inactive) | > 100 µM (inactive) | > 100 µM (inactive) | > 100 µM (inactive) | > 100 µM (inactive) | > 100 µM (inactive) | > 100 µM (inactive) | > 100 µM (inactive) | > 100 µM (inactive) | > 100 µM (inactive) | > 100 µM (inactive)
2 | CCCCCCCCCCCCCCCCCCNc1nc(=O)n(C2CC(O)C(COP(=O)(O)OCC(COP(=O)(O)OC3C(CO)OC(n4ccc(N)nc4=O)C3O)OCCCCCCCCCCCCCCCCCC)O2)cc1F (stereo not given) | 36.7 µM (inactive) | 23.3 µM (inactive) | > 100 µM (inactive) | 27.5 µM (inactive) | 78.5 µM (inactive) | 22.9 µM (inactive) | 16.7 µM (inactive) | 31.7 µM (inactive) | > 100 µM (inactive) | 32 µM (inactive) | 87.9 µM (inactive) | 13.2 µM (inactive) | > 100 µM (inactive) | 17.4 µM (inactive) | > 100 µM (inactive) | 99.3 µM (inactive) | > 100 µM (inactive) | 33.1 µM (inactive) | 13.3 µM (inactive) | > 100 µM (inactive)
3 | CC(C)n1c(=O)[nH]n(-c2ccccc2)c1=O | > 100 µM (inactive) | > 100 µM (inactive) | > 100 µM (inactive) | > 100 µM (inactive) | > 100 µM (inactive) | > 100 µM (inactive) | > 100 µM (inactive) | > 100 µM (inactive) | > 100 µM (inactive) | > 100 µM (inactive) | > 100 µM (inactive) | > 100 µM (inactive) | > 100 µM (inactive) | > 100 µM (inactive) | > 100 µM (inactive) | > 100 µM (inactive) | > 100 µM (inactive) | > 100 µM (inactive) | > 100 µM (inactive) | > 100 µM (inactive)
4 | NC(=O)C1=C(O)C[C@@H]2CC3Cc4cccc(O)c4C(=O)C3=C(O)[C@]2(O)C1=O (stereo not given in full) | 2.74 µM (inactive) | 1.07 µM (active) | 0.861 µM (active) | 1.8 µM (inactive) | 2.81 µM (inactive) | 1.81 µM (inactive) | 1.77 µM (inactive) | 1.84 µM (inactive) | 2.78 µM (inactive) | 1.85 µM (inactive) | 10.7 µM (inactive) | 1.8 µM (inactive) | 1.85 µM (inactive) | 1.64 µM (inactive) | 1.36 µM (inactive) | 3.69 µM (inactive) | 3.01 µM (inactive) | 4.86 µM (inactive) | 0.962 µM (active) | 2.15 µM (inactive)
5 | NC(=O)Nc1n[nH]c(-c2ccccc2)n1 | > 100 µM (inactive) | > 100 µM (inactive) | > 100 µM (inactive) | > 100 µM (inactive) | > 100 µM (inactive) | > 100 µM (inactive) | > 100 µM (inactive) | > 100 µM (inactive) | > 100 µM (inactive) | > 100 µM (inactive) | > 100 µM (inactive) | > 100 µM (inactive) | 0.706 µM (active) | > 100 µM (inactive) | > 100 µM (inactive) | 1.79 µM (inactive) | > 100 µM (inactive) | > 100 µM (inactive) | > 100 µM (inactive) | > 100 µM (inactive)
6 | CO/C(N)=C(C#N)/N=C/c1ccsc1 | > 100 µM (inactive) | > 100 µM (inactive) | 54.6 µM (inactive) | 40 µM (inactive) | 52.2 µM (inactive) | 30.4 µM (inactive) | 18.6 µM (inactive) | 29 µM (inactive) | 32.7 µM (inactive) | 37.3 µM (inactive) | > 100 µM (inactive) | 81.1 µM (inactive) | > 100 µM (inactive) | 26.2 µM (inactive) | 28.2 µM (inactive) | > 100 µM (inactive) | > 100 µM (inactive) | > 100 µM (inactive) | 40 µM (inactive) | 33.4 µM (inactive)
7 | COC1=CC(=O)c2c(ccc3ncnc(N)c23)C1=O | 2.22 µM (inactive) | 1.57 µM (inactive) | 2.04 µM (inactive) | 1.77 µM (inactive) | 3.3 µM (inactive) | 0.659 µM (active) | 1.03 µM (active) | 1.88 µM (inactive) | 1.19 µM (inactive) | 1.54 µM (inactive) | 0.561 µM (active) | 2.32 µM (inactive) | 3.62 µM (inactive) | 1.61 µM (inactive) | 1.64 µM (inactive) | 6.28 µM (inactive) | 1.87 µM (inactive) | 3.13 µM (inactive) | 1.74 µM (inactive) | 1.81 µM (inactive)
8 | O=C(O)CCCSc1ccccc1 | > 100 µM (inactive) | > 100 µM (inactive) | > 100 µM (inactive) | > 100 µM (inactive) | > 100 µM (inactive) | > 100 µM (inactive) | > 100 µM (inactive) | > 100 µM (inactive) | > 100 µM (inactive) | > 100 µM (inactive) | > 100 µM (inactive) | > 100 µM (inactive) | > 100 µM (inactive) | > 100 µM (inactive) | > 100 µM (inactive) | > 100 µM (inactive) | > 100 µM (inactive) | > 100 µM (inactive) | > 100 µM (inactive) | > 100 µM (inactive)
9 | CCCCNC(=O)c1cc2c(cc1Cl)Sc1nccn1S2(=O)=O | > 100 µM (inactive) | 82 µM (inactive) | 70.8 µM (inactive) | 31 µM (inactive) | 57.3 µM (inactive) | 78.5 µM (inactive) | 30.3 µM (inactive) | > 100 µM (inactive) | > 100 µM (inactive) | > 100 µM (inactive) | 43.7 µM (inactive) | 55.2 µM (inactive) | > 100 µM (inactive) | > 100 µM (inactive) | 0.0116 µM (active) | > 100 µM (inactive) | > 100 µM (inactive) | > 100 µM (inactive) | 54.8 µM (inactive) | 86.5 µM (inactive)
10 | C/C=C(\C)c1cc(=O)c2c(C)cc3c(c2o1)C(=O)c1c(O)c(C2CC(C)(N(C)C)C(OC(C)=O)C(C)O2)cc(C2CC(N(C)C)C(O)C(C)O2)c1C3=O (stereo not given) | 1.48 µM (inactive) | 0.155 µM (active) | 1.12 µM (active) | 0.185 µM (active) | 2 µM (inactive) | 0.652 µM (active) | 0.731 µM (active) | 0.748 µM (active) | 1.14 µM (inactive) | 0.971 µM (active) | 1.48 µM (inactive) | 1.35 µM (inactive) | 1.06 µM (active) | 0.574 µM (active) | 0.625 µM (active) | 1.95 µM (inactive) | 0.817 µM (active) | 1.06 µM (active) | 0.49 µM (active) | 1.12 µM (inactive)
11 | CC(C)(C)OC(=O)CC(NC(=O)OC(C)(C)C)C(=O)Oc1ccc([N+](=O)[O-])cc1 (stereo not given) | > 100 µM (inactive) | > 100 µM (inactive) | > 100 µM (inactive) | > 100 µM (inactive) | > 100 µM (inactive) | > 100 µM (inactive) | > 100 µM (inactive) | > 100 µM (inactive) | > 100 µM (inactive) | > 100 µM (inactive) | > 100 µM (inactive) | > 100 µM (inactive) | > 100 µM (inactive) | > 100 µM (inactive) | 78.7 µM (inactive) | 29.9 µM (inactive) | > 100 µM (inactive) | > 100 µM (inactive) | > 100 µM (inactive) | 11.1 µM (inactive)
12 | CN(Cc1cnc2nc(N)nc(N)c2n1)c1ccc(C(=O)NCS(=O)(=O)O)cc1 | > 100 µM (inactive) | 64.9 µM (inactive) | > 100 µM (inactive) | 43.3 µM (inactive) | > 100 µM (inactive) | > 100 µM (inactive) | 90.4 µM (inactive) | > 100 µM (inactive) | > 100 µM (inactive) | > 100 µM (inactive) | > 100 µM (inactive) | 48.1 µM (inactive) | > 100 µM (inactive) | 85.7 µM (inactive) | > 100 µM (inactive) | > 100 µM (inactive) | > 100 µM (inactive) | > 100 µM (inactive) | > 100 µM (inactive) | > 100 µM (inactive)
13 | CC(Oc1ccc(Cl)cc1Cl)C(=O)NN1C(=O)CSC1c1ccccc1 (stereo not given) | 42.8 µM (inactive) | 68.5 µM (inactive) | 90.2 µM (inactive) | 45.7 µM (inactive) | 45.6 µM (inactive) | 63.4 µM (inactive) | 69 µM (inactive) | 54.2 µM (inactive) | 37.8 µM (inactive) | 86.5 µM (inactive) | 32.1 µM (inactive) | 32.4 µM (inactive) | 60 µM (inactive) | > 100 µM (inactive) | 70.8 µM (inactive) | 55.8 µM (inactive) | 69.2 µM (inactive) | > 100 µM (inactive) | 76.4 µM (inactive) | 50.2 µM (inactive)
14 | CCC(C#N)(c1ccccc1)N(CCc1ccccc1)C(=O)c1ccccc1 (stereo not given) | 24.2 µM (inactive) | 51.2 µM (inactive) | > 100 µM (inactive) | 24.8 µM (inactive) | 18.2 µM (inactive) | > 100 µM (inactive) | > 100 µM (inactive) | > 100 µM (inactive) | 13.5 µM (inactive) | 76.9 µM (inactive) | 10.8 µM (inactive) | > 100 µM (inactive) | 29.6 µM (inactive) | 15.6 µM (inactive) | > 100 µM (inactive) | 32.8 µM (inactive) | 85.5 µM (inactive) | 62.1 µM (inactive) | 30.3 µM (inactive) | 49.5 µM (inactive)
